Assay results as given in patent publication US4705805A, “Antithrombotic agent” (priority 1978, dated 1987).
Like-named read-outs stand apart in the source and are kept apart here.

How the values were obtained:
[1] = acute toxicity, Behrens-Karber's method; type: in vivo; conditions: in vivo; mouse, oral
Experimental: In this example, the acute toxicity of compounds of the invention is determined by Behrens-Karber's method using, 5 male dd-strain for each group weighing 20±1 g. A 0.3% CMC suspension of the test compound (concentration of the test compound: 100 mg/ml) is then orally administered to each mouse.

[2] = test system: rabbit blood platelets (platelet rich plasma), collagen-induced aggregation; test: inhibition of platelet aggregation in rabbit platelet rich plasma (in vitro), induced by collagen; type: cell-based; conditions: Oryctolagus cuniculus, Platelet, read-out: percentage of inhibition, collagen; for inhibition at 3 µg/mL: 3 μg/ml; for inhibition at 10 µg/mL: 10 μg/ml; for inhibition at 1 µg/mL: 1 μg/ml
Experimental: (§1) In this example, the inhibition of platelet aggregation in rabbit platelet rich plasma (in vitro) is tested.
(§2) In this test, 9 vol. of blood is sampled from the carotid artery of rabbits (2 to 2.5 Kg) and placed in a silicon-coated flask containing 1 vol. of 3.8% sodium citrate. The thus obtained blood is centrifuged at 1,000 rpm for 15 minutes to obtain platelet rich plasma (referred to as "PRP" hereinafter). The aggregation of blood platelets is observed using an aggregometer (made by Bryston Co.) and the degree of aggregation after the addition of aggregation promoting substances is measured by nephelometry, i.e., through increase in light transmission.
(§3) The PRP (0.9 ml) is placed in a silicon-coated cuvett of the aggregometer. Then, 0.05 ml of physiological saline solution containing various concentrations of test reagents or control reagents is added and the mixture is allowed to stand for one minute. Compounds promoting aggregation are then added and the absorbancy of the solution is measured and the percent inhibition of aggregation is calculated according to the following equation: [formula] C: Transmittancy showing the maximum percent aggregation by physiological saline solution
(§4) D: Transmittancy showing the maximum percent aggregation by sample
(§5) Test for the inhibition of platelet aggregation induced by ADP, collagen and thrombin.

[3] = test system: rabbit blood platelets (platelet rich plasma), ADP-induced aggregation; test: inhibition of platelet aggregation in rabbit platelet rich plasma (in vitro), induced by ADP; type: cell-based; conditions: Oryctolagus cuniculus, Platelet, read-out: percentage of inhibition, ADP; for inhibition at 3 µg/mL: 3 μg/ml; for inhibition at 10 µg/mL: 10 μg/ml
Experimental: as §1, §2, §3, §4, §5

[4] = test system: human platelet rich plasma, ADP-induced aggregation; test: inhibition of platelet aggregation in human platelet rich plasma, induced by ADP; type: cell-based; conditions: human PRP, read-out: percentage inhibition, ADP; for inhibition at 30 µg/mL: 30 μg/ml; for inhibition at 100 µg/mL: 100 μg/ml; for inhibition at 10 µg/mL: 10 μg/ml
Experimental: as §2, §3, §4
(§6) In this example, the same procedures are repeated as in Example 10 except that human platelet rich plasma is used in place of rabbit platelet rich plasma.

[5] = test system: human platelet rich plasma, collagen-induced aggregation; test: inhibition of platelet aggregation in human platelet rich plasma, induced by collagen; type: cell-based; conditions: human PRP, read-out: percentage inhibition, collagen; for inhibition at 30 µg/mL: 30 μg/ml; for inhibition at 100 µg/mL: 100 μg/ml; for inhibition at 10 µg/mL: 10 μg/ml
Experimental: as §2, §3, §4, §6

[6] = test system: mice, death by ADP injection; test: prevention of death of mice by ADP addition (in vivo), oral administration
Experimental: In this example, prevention of death of mice by ADP addition (in vivo) is tested. It is shown that intravenous administration of a great amount of ADP to mice causes aggregated blood platelets to be captured in the pulmonary capillaries so that the mice die of respiratory distress.
The test is carried out according to Roba's method. [Eur. J. Pharmacol. 37, 265-274 (1976)]. Specifically, CMC solution (0.3%) and CMC suspension containing the test compound and control compounds are orally administered to mice in a ratio of 0.1 ml/10 g (body weight). After one hour, an aqueous solution of ADP (60 mg/ml) is injected into the tail vein in a volume of 0.1 ml/10 g (body weight) every 10 seconds and the mortality is calculated.

[7] = rabbit PRP, ADP 10^-5 M, 30 μg/ml
[8] = rabbit PRP, ADP 10^-5 M, 100 μg/ml
[9] = oral, 100 mg/Kg, ADP i.v. after one hour

`O=C(Nc1ccccc1[N+](=O)[O-])c1ccccc1SSc1ccccc1C(=O)Nc1ccccc1[N+](=O)[O-]` [Compound XII, 2,2'-dithiobis(N-o-nitrophenylbenzamide)] showed an LD50 [1] of at least 1000 mg/kg, an inhibition at 30 µg/mL [2] of 45% and an inhibition at 100 µg/mL [2] of 90%. The inhibition at 30 µg/mL [3] was 20% and the inhibition at 100 µg/mL [3] was 50%.
In the case of `CCCCCCCCCCCC(=O)OCCNC(=O)c1ccccc1SSc1ccccc1C(=O)NCCOC(=O)CCCCCCCCCCC` [Compound XIX, 2,2'-dithiobis(N-2-dodecanoyloxyethylbenzamide)], the inhibition at 30 µg/mL [4] is reported as 5%, the inhibition at 100 µg/mL [4] is reported as 35% and the LD50 [1] is reported as at least 1000 mg/kg. The inhibition at 30 µg/mL [5] was 16%, the inhibition at 100 µg/mL [5] was 46% and the inhibition at 30 µg/mL ([2]; rabbit PRP, 30 μg/ml) was 54%. It also gave an inhibition at 100 µg/mL ([2]; rabbit PRP, 100 μg/ml) of 100%, an inhibition at 30 µg/mL [3, 7] of 12% and an inhibition at 100 µg/mL [3, 8] of 72%.
`O=C(NCCCN1CCOCC1)c1ccccc1SSc1ccccc1C(=O)NCCCN1CCOCC1` [Compound XL, 2,2'-dithiobis(N-3-morpholinopropylbenzamide)] gave an inhibition at 10 µg/mL [4] of 65%, an inhibition at 30 µg/mL [4] of 85% and an inhibition at 100 µg/mL [4] of 100%. It also gave an LD50 [1] of at least 1000 mg/kg, an inhibition at 10 µg/mL [5] of 40% and an inhibition at 30 µg/mL [5] of 100%. It also gave an inhibition at 100 µg/mL [5] of 100%, an inhibition at 3 µg/mL ([2]; rabbit PRP) of 21% and an inhibition at 10 µg/mL ([2]; rabbit PRP) of 98%. It also gave an inhibition at 30 µg/mL ([2]; rabbit PRP, 30 μg/ml) of 100%, an inhibition at 100 µg/mL ([2]; rabbit PRP, 100 μg/ml) of 100% and an inhibition at 3 µg/mL ([3]; rabbit PRP, ADP 10^-5 M) of 26%. It also gave an inhibition at 10 µg/mL ([3]; rabbit PRP, ADP 10^-5 M) of 69% and an inhibition at 30 µg/mL [3, 7] of 100%.
In the case of `O=C(NC(CO)(CO)CO)c1ccccc1SSc1ccccc1C(=O)NC(CO)(CO)CO` [Compound XLI, 2,2'-dithiobis[N-2-hydroxy-1,1-di-(1'-hydroxymethyl)-ethylbenzamide]], the LD50 [1] is reported as at least 1000 mg/kg, the inhibition at 30 µg/mL ([2]; rabbit PRP, 30 μg/ml) is reported as 7% and the inhibition at 100 µg/mL ([2]; rabbit PRP, 100 μg/ml) is reported as 96%. For the same compound, the inhibition at 30 µg/mL [3, 7] was 22% and the inhibition at 100 µg/mL [3, 8] was 71%.
For `COCCNC(=O)c1ccccc1SSc1ccccc1C(=O)NCCOC` [Compound XVIII, 2,2'-dithiobis(N-2-methyloxyethylbenzamide)], the inhibition at 30 µg/mL [4] was 20%, the inhibition at 100 µg/mL [4] was 65% and the LD50 [1] was at least 1000 mg/kg. For the same compound, the inhibition at 10 µg/mL [5] was 10%, the inhibition at 30 µg/mL [5] was 45% and the inhibition at 100 µg/mL [5] was 100%. The inhibition at 10 µg/mL ([2]; rabbit PRP) was 40%, the inhibition at 30 µg/mL ([2]; rabbit PRP, 30 μg/ml) was 100% and the inhibition at 100 µg/mL ([2]; rabbit PRP, 100 μg/ml) was 100%. For the same compound, the inhibition at 100 µg/mL [3, 8] was 75%.
In the case of `CCOC(CN1CCN(C(=O)c2ccccc2SSc2ccccc2C(=O)N2CCN(CC(OCC)c3ccccc3)CC2)CC1)c1ccccc1` (stereo not shown) [Compound XXIX, 2,2'-dithiobis[N'-(2-phenyl-2-ethyloxyethyl)benzpiperazide]], the LD50 [1] is reported as at least 1000 mg/kg, the inhibition at 3 µg/mL ([2]; rabbit PRP) is reported as 0% and the inhibition at 10 µg/mL ([2]; rabbit PRP) is reported as 55%. For the same compound, the inhibition at 30 µg/mL ([2]; rabbit PRP, 30 μg/ml) was 100%, the inhibition at 10 µg/mL ([3]; rabbit PRP, ADP 10^-5 M) was 32% and the inhibition at 30 µg/mL [3, 7] was 43%.
With `O=C(NCCNCCO)c1ccccc1SSc1ccccc1C(=O)NCCNCCO` [Compound XXV, 2,2'-dithiobis[N-2-(2-hydroxyethylamino)-ethylbenzamide]] the inhibition at 100 µg/mL [4] was 10%, the LD50 [1] was at least 1000 mg/kg and the inhibition at 30 µg/mL [5] was 4%. The inhibition at 100 µg/mL [5] was 25%, the inhibition at 30 µg/mL ([2]; rabbit PRP, 30 μg/ml) was 42% and the inhibition at 30 µg/mL [3, 7] was 10%.
With `O=C(NC1CCCCC1)c1ccccc1SSc1ccccc1C(=O)NC1CCCCC1` [Compound XXVI, 2,2'-dithiobis(N-cyclohexylbenzamide)] the LD50 [1] was at least 1000 mg/kg, the inhibition at 30 µg/mL ([2]; rabbit PRP, 30 μg/ml) was 25% and the inhibition at 30 µg/mL [3, 7] was 30%.
Compound `O=C(c1ccccc1SSc1ccccc1C(=O)N1CCOCC1)N1CCOCC1` [Compound XXVII, 2,2'-dithiobis(benzmorpholide)] has an inhibition at 30 µg/mL [4] of 5%, an inhibition at 100 µg/mL [4] of 45% and an LD50 [1] of at least 1000 mg/kg. It also gave an inhibition at 10 µg/mL [5] of 0%, an inhibition at 30 µg/mL [5] of 35% and an inhibition at 100 µg/mL [5] of 100%. For the same compound, the inhibition at 1 µg/mL ([2]; rabbit PRP) was 40%, the inhibition at 3 µg/mL ([2]; rabbit PRP) was 59% and the inhibition at 10 µg/mL ([2]; rabbit PRP) was 100%. For the same compound, the inhibition at 30 µg/mL ([2]; rabbit PRP, 30 μg/ml) was 100%, the inhibition at 3 µg/mL ([3]; rabbit PRP, ADP 10^-5 M) was 40% and the inhibition at 10 µg/mL ([3]; rabbit PRP, ADP 10^-5 M) was 60%. For the same compound, the inhibition at 30 µg/mL [3, 7] was 100%.
With `O=C(c1ccccc1SSc1ccccc1C(=O)N1CCN(c2ccccc2)CC1)N1CCN(c2ccccc2)CC1` [Compound XXVIII, 2,2'-dithiobis(N'-phenylbenzpiperazide)] the LD50 [1] was at least 1000 mg/kg, the inhibition at 3 µg/mL ([2]; rabbit PRP) was 14% and the inhibition at 10 µg/mL ([2]; rabbit PRP) was 55%. The inhibition at 30 µg/mL ([2]; rabbit PRP, 30 μg/ml) was 99%, the inhibition at 10 µg/mL ([3]; rabbit PRP, ADP 10^-5 M) was 19% and the inhibition at 30 µg/mL [3, 7] was 55%.
`O=C(c1ccccc1SSc1ccccc1C(=O)N1CCN(CC=Cc2ccccc2)CC1)N1CCN(CC=Cc2ccccc2)CC1` [Compound XXX, 2,2'-dithiobis[N'-(3-phenyl-propene-1-yl)benzpiperazide]] gave an LD50 [1] of at least 1000 mg/kg, an inhibition at 30 µg/mL ([2]; rabbit PRP, 30 μg/ml) of 40% and an inhibition at 30 µg/mL [3, 7] of 17%.
Work on `O=C(NCCO)c1cc(Cl)ccc1SSc1ccc(Cl)cc1C(=O)NCCO` [Compound XXXI, 2,2'-dithiobis(5-chloro-N-2-hydroxyethyl)benzamide] yielded an inhibition at 10 µg/mL [4] of 10%, an inhibition at 30 µg/mL [4] of 50% and an inhibition at 100 µg/mL [4] of 88%. For the same compound, the LD50 [1] was at least 1000 mg/kg, the inhibition at 10 µg/mL [5] was 12% and the inhibition at 30 µg/mL [5] was 60%. It also gave an inhibition at 100 µg/mL [5] of 100%, an inhibition at 1 µg/mL ([2]; rabbit PRP) of 26% and an inhibition at 3 µg/mL ([2]; rabbit PRP) of 100%. For the same compound, the inhibition at 10 µg/mL ([2]; rabbit PRP) was 100%, the inhibition at 30 µg/mL ([2]; rabbit PRP, 30 μg/ml) was 100% and the inhibition at 100 µg/mL ([2]; rabbit PRP, 100 μg/ml) was 100%. For the same compound, the inhibition at 3 µg/mL ([3]; rabbit PRP, ADP 10^-5 M) was 0%, the inhibition at 10 µg/mL ([3]; rabbit PRP, ADP 10^-5 M) was 43% and the inhibition at 30 µg/mL [3, 7] was 80%. The inhibition at 100 µg/mL [3, 8] was 100%.
With `COc1ccc(Cc2nccc3cc(OC)c(OC)cc23)cc1OC` [papaverine, reference compound] the “effect in reducing mortality (ADP)” value ([6]; in words, oral or intravenous administration, Table 3) was “ineffective”, the Mortality [6, 9] was 60% and the “Score (mortality)” value [6, 9] was 6/10. For the same compound, the inhibition at 30 µg/mL [2] was 34%, the inhibition at 100 µg/mL [2] was 100% and the inhibition at 30 µg/mL [3] was 14%. It also gave an inhibition at 100 µg/mL [3] of 99%.
